Earlier results as cited in patent publication US20240325430A1, “MULTIPLE FOLATE FORMULATION AND USE THEREOF” (JAYMAC PHARMACEUTICAL LLC, priority 2012, published 2024).

Test system: hydrocephalic Texas rats
Conditions: injected into hydrocephalic Texas rats during fetal development; J Neuropathol Exp Neurol 2009

Nc1nc2ncc(CNc3ccc(C(=O)N[C@@H](CCC(=O)O)C(=O)O)cc3)nc2c(=O)[nH]1 [folic acid]
incidence of hydrocephalus: significant increase
